Assay results taken from patent US20070015232A1, “Mitotic index assay” (DiscoveRx, Inc., priority 2005, published 2007).

Assays:
[1] = system: C2C12+EA-NLS/NRS+GR-PL cells; experiment: EFC mitotic index assay, C2C12+EA-NLS/NRS+GR-PL cells (Stanford GR cells); format: cell-based, mouse; settings: 24 hours, 30 min read
Procedure: (§1) In all experiments described, 20,000 cells/well were plated in a 96 well Corning clear bottom white plate in a total volume of 100 μL. The cells were treated for 24 hours with 5 μL of either the appropriate vehicle control or varying concentrations of the six compounds listed above. The next day, 100 μL of Tropix/ABI Gal screen cell lysis buffer/substrate mixture (24:1 ratio of component) was added to the cells/media and the plate was read on the Victor II luminescent plate reader at 30, 60 and 120 minutes after the lysis/substrate addition.
(§2) The initial test of the cell cycle arresting compounds was performed on a double stable cell line having both of the constructs expressing the EA-NLS/NRS and GR-PL. (PL is β-galactosidase enzyme donor fragment and EA is the enzyme acceptor fragment available from DiscoveRx, Fremont, CA.). The parental line, C2C12 is derived from mouse muscle cells. In the experiments in which EA-NLS/NRS and GR-PL are expressed in the C2C12 parental cell line, the constructs were generated by subcloning the human GR sequence into a MFG-based retroviral vector that had been molecularly altered in a lab at Stanford. An MFG vector is described in U.S. Pat. No. 6,544,771. The EA-NLS/NRS fragment was subcloned into a wzl-based retroviral vector again molecularly altered in a lab at Stanford. In the experiments performed using a CHO-K1 parental cell line background the EA-NLS/NRS was subcloned into the Kpn I and Xba I sites of pcDNA3.1 Hygro vector from Invitrogen (catalog #V870-20). The plasmid was introduced into the cells via FuGene6 (Roche) transfection reagent. Cells were selected in the presence of 250 μg/mL of Hygromycin and single cell clones isolated that expressed the EA-NLS/NRS. The human GR gene was cloned by PCR and subcloned into the Xho I and Bam HI sites of the DiscoveRx vector-pCMV-myc-PL (C3). The plasmid was introduced into the selected EA-NLS/NRS expressing clone isolated above by FuGene 6 transfection. Another round of screening in the presence of 300-500 μg/mL of G418 was used to select GR-PL transfected clones. Clonal selection was performed to finally identify the clone that was used in these studies. In the studies using the CHO-K1+cyto-EA and cJUN-PL, the same Invitrogen pcDNA3.1 Hygro vector was used to express EA. In this case, the EA fragment was subcloned into the Kpn I/Not I sites of pcDNA3.1 Hygro. The plasmid DNA was introduced as described above using FuGene6 reagent. Cells were selected in the presence of 250 μg/mL of hygromycin and clonal selection was performed. The c-Jun gene was generated by PCR using an existing template copy of the gene and then subcloned into the Xho I/Bam HI sites of pCMV-PL-myc (C3).

[2] = system: CHO-K1+cyto-EA cells transfected with cJUN-PL; experiment: EFC mitotic index assay, CHO-K1+cyto-EA cells transiently transfected with cJUN-PL; format: cell-based; settings: for Avg luminescence readout / R1 luminescence readout / R3 luminescence readout / Ratio (Avg vs 0 conc): overnight
Procedure: as §2
To further test the concept of sequestering of one β-galactosidase enzyme fragment in the nucleus (in this case PL) while localizing the other component in the cytoplasm (in this case EA) the following experiment was carried out. […] The cyto-EA cells were transiently transfected with cJUN-PL plasmid DNA. Two days after the transfection, the cells were re-plated into a 96 well Corning white clear bottom multiwell plate at 20,000 cells/well. The cells were allowed to adhere overnight and the next day were treated with titrating concentrations of the six different cell cycle blocking compounds. The incubation was carried out overnight. The next day the media was removed from the cells and 100 μL of Tropix/ABI Gal screen cell lysis/substrate reagent was added to the cells.

[3] = system: CHO-K1+EA-NLS/NRS+GR-PL cells; experiment: EFC mitotic index assay, CHO-K1+EA-NLS/NRS+GR-PL cells, antibiotic selected pool (DX M19/GR pool); format: cell-based; settings: 24 hours, 30 min read
Procedure: as §1, §2
In the next experiment, an antibiotic selected pool population of CHO-K1 cells that express EA-NLS/NRS and GR-PL were tested with the same six set of cell cycle blocking compounds. […] FIGS. 2a and 2b show the immunofluorescence localization of EA and GR-PL in that the blue DAPI nuclear staining can be seen to be concentrated in the nucleus, while the green fluorescein stain on the antibody (from Abcam PLC) to the glucocorticoid receptor is seen in the cytoplasm. […] Again, six tables are presented one for each of the six drugs tested.
This only occurs with compounds that block the cells in mitosis, allowing EA and ProLabel to complement.

[4] = system: Clone #69 CHO-K1 cells expressing EA-NLS/NRS and GR-PL; experiment: EFC assay in stable clone #69 (CHO-K1, EA-NLS/NRS and GR-PL) with or without RU486 pre-incubation; format: cell-based; settings: for Avg luminescence readout / R1 luminescence readout / R3 luminescence readout / Ratio (Avg vs 0 conc): overnight, vehicle pre-incubation
Procedure: In the next experiment, a stable clone (clone #69) expressing both EA-NLS/NRS and GR-PL was isolated in a CHO-K1 parental background. […] 20,000 cells/well were plated in a 96 well white coming multi-well plate and allowed to adhere overnight. The next day, the cells were washed two times with serum free F12 media and 100 μL of serum free F12 media was added to the cells. The cells were then incubated in either vehicle (ethanol-1% final concentration) or 10 μM RU486 for one hour. To the cells, three different concentrations of dexamethasone (300, 100, 30 μM) (an agonist of GR), RU486 (30, 10, 3.33 μM), colchicine (1, 0.3, 0.1 μ/mL) or nocodazole (10, 3.33, 1.11 μg/mL) were added and the incubation went overnight at 37° C. with 5% CO2. The next day, the media was aspirated off and 100 μL of Tropix/ABI Gal screen cell lysis/substrate reagent was added to the cells. The plate was read on the Victor II reader at 30, 60 and 120 minutes.

[5] = High conc (nocodazole 10 μg/mL, colchicine 1 μ/mL, dexamethasone 300 μM, RU486 30 μM)
[6] = Low conc (nocodazole 1.11 μg/mL, colchicine 0.1 μ/mL, dexamethasone 30 μM, RU486 3.33 μM)
[7] = Med conc (nocodazole 3.33 μg/mL, colchicine 0.3 μ/mL, dexamethasone 100 μM, RU486 10 μM)

Work on `COc1cc2c(c(OC)c1OC)-c1ccc(OC)c(=O)cc1[C@@H](NC(C)=O)CC2` [Colchicine, colchicine] yielded an Avg luminescence readout ([1]; 0.03 μM) of 11782, an R1 luminescence readout ([1]; 0.03 μM) of 10442 and an R3 luminescence readout ([1]; 0.03 μM) of 12456. The “Ratio (Avg vs 0 conc)” value ([1]; 0.03 μM) was 1, the Avg luminescence readout ([1]; 0.1 μM) was 9170 and the R1 luminescence readout ([1]; 0.1 μM) was 6763. For the same molecule, the R3 luminescence readout ([1]; 0.1 μM) was 10724, the “Ratio (Avg vs 0 conc)” value ([1]; 0.1 μM) was 1 and the Avg luminescence readout ([1]; 0.3 μM) was 11243. The R1 luminescence readout ([1]; 0.3 μM) was 11132, the R3 luminescence readout ([1]; 0.3 μM) was 12160 and the “Ratio (Avg vs 0 conc)” value ([1]; 0.3 μM) was 1. The Avg luminescence readout ([1]; 1 μM) was 12083, the R1 luminescence readout ([1]; 1 μM) was 11891 and the R3 luminescence readout ([1]; 1 μM) was 11866. For the same molecule, the “Ratio (Avg vs 0 conc)” value ([1]; 1 μM) was 1, the Avg luminescence readout ([2]; 0.3 μg/mL) was 8548 and the R1 luminescence readout ([2]; 0.3 μg/mL) was 7491. The R3 luminescence readout ([2]; 0.3 μg/mL) was 9730, the “Ratio (Avg vs 0 conc)” value ([2]; 0.3 μg/mL) was 1.2 and the Avg luminescence readout ([2]; 1.0 μg/mL) was 10762. For the same molecule, the R1 luminescence readout ([2]; 1.0 μg/mL) was 11290, the R3 luminescence readout ([2]; 1.0 μg/mL) was 9929 and the “Ratio (Avg vs 0 conc)” value ([2]; 1.0 μg/mL) was 1.5. For the same molecule, the Avg luminescence readout ([2]; 3.0 μg/mL) was 13255, the R1 luminescence readout ([2]; 3.0 μg/mL) was 12822 and the R3 luminescence readout ([2]; 3.0 μg/mL) was 13005. The “Ratio (Avg vs 0 conc)” value ([2]; 3.0 μg/mL) was 1.9, the Avg luminescence readout ([2]; 10.0 μg/mL) was 14719 and the R1 luminescence readout ([2]; 10.0 μg/mL) was 13772. For the same molecule, the R3 luminescence readout ([2]; 10.0 μg/mL) was 14302, the “Ratio (Avg vs 0 conc)” value ([2]; 10.0 μg/mL) was 2.1 and the “increase in EFC activity” value ([2]; overnight incubation) was about 2.1 fold. For the same molecule, the Avg luminescence readout ([3]; 0.03 μM) was 3412, the R1 luminescence readout ([3]; 0.03 μM) was 3128 and the R3 luminescence readout ([3]; 0.03 μM) was 3727. The “Ratio (Avg vs 0 conc)” value ([3]; 0.03 μM) was 1, the Avg luminescence readout ([3]; 0.1 μM) was 5814 and the R1 luminescence readout ([3]; 0.1 μM) was 6507. The R3 luminescence readout ([3]; 0.1 μM) was 4886, the “Ratio (Avg vs 0 conc)” value ([3]; 0.1 μM) was 2 and the Avg luminescence readout ([3]; 0.3 μM) was 7251. For the same molecule, the R1 luminescence readout ([3]; 0.3 μM) was 7078, the R3 luminescence readout ([3]; 0.3 μM) was 7341 and the “Ratio (Avg vs 0 conc)” value ([3]; 0.3 μM) was 3. It also gave an Avg luminescence readout ([3]; 1 μM) of 11843, an R1 luminescence readout ([3]; 1 μM) of 10671 and an R3 luminescence readout ([3]; 1 μM) of 13178. The “Ratio (Avg vs 0 conc)” value ([3]; 1 μM) was 4, the “effect of incubation with RU486 on the EFC response (in words)” value ([4]; 10 μM RU486 pre-incubation for one hour) was “not blocked by the incubation with RU486” and the Avg luminescence readout [4, 5] was 1623. For the same molecule, the R1 luminescence readout [4, 5] was 1850, the R3 luminescence readout [4, 5] was 1323 and the “Ratio (Avg vs 0 conc)” value [4, 5] was 4. For the same molecule, the Avg luminescence readout [4, 6] was 1136, the R1 luminescence readout [4, 6] was 1274 and the R3 luminescence readout [4, 6] was 1007. For the same molecule, the “Ratio (Avg vs 0 conc)” value [4, 6] was 3, the Avg luminescence readout [4, 7] was 1241 and the R1 luminescence readout [4, 7] was 1345. For the same molecule, the R3 luminescence readout [4, 7] was 1073 and the “Ratio (Avg vs 0 conc)” value [4, 7] was 3.
